Source: the NIST ThermoML archive (doi:10.1016/j.jct.2019.05.002)
± gives the expanded uncertainty stated by the source.

Assay: xn = mol fraction of the nth substance listed
Conditions: 100 kPa, Liquid; for speed of sound: Frequency=3 MHz, Single path-length method; for mass density: Vibrating tube method

CC(O)CCO (stereo not given) [1,3-butanediol] + CCCC(=O)OCC
speed of sound (298.15 K, x2 = 0): 1527.9 ± 1.4 m/s
speed of sound (298.15 K, x2 = 0.1034): 1491.1 ± 1.4 m/s
speed of sound (298.15 K, x2 = 0.203): 1455.7 ± 1.3 m/s
speed of sound (298.15 K, x2 = 0.305): 1419.4 ± 1.2 m/s
speed of sound (298.15 K, x2 = 0.3835): 1391.4 ± 1.2 m/s
speed of sound (298.15 K, x2 = 0.4936): 1352.2 ± 1.1 m/s
speed of sound (298.15 K, x2 = 0.5811): 1321.1 ± 1.1 m/s
speed of sound (298.15 K, x2 = 0.6878): 1283.1 ± 1.1 m/s
speed of sound (298.15 K, x2 = 0.7997): 1243.3 ± 1 m/s
speed of sound (298.15 K, x2 = 0.8818): 1214.1 ± 1 m/s
mass density (298.15 K, x2 = 0): 1001.87 ± 2 kg/m3
mass density (298.15 K, x2 = 0.1034): 988.68 ± 2 kg/m3
mass density (298.15 K, x2 = 0.203): 975.97 ± 2 kg/m3
mass density (298.15 K, x2 = 0.305): 962.97 ± 2 kg/m3
mass density (298.15 K, x2 = 0.3835): 952.95 ± 2 kg/m3
mass density (298.15 K, x2 = 0.4936): 938.91 ± 2 kg/m3
mass density (298.15 K, x2 = 0.5811): 927.76 ± 2 kg/m3
mass density (298.15 K, x2 = 0.6878): 914.14 ± 2 kg/m3
mass density (298.15 K, x2 = 0.7997): 899.87 ± 2 kg/m3
mass density (298.15 K, x2 = 0.8818): 889.39 ± 2 kg/m3
speed of sound (303.15 K, x2 = 0): 1514 ± 1.4 m/s
speed of sound (303.15 K, x2 = 0.1034): 1476.5 ± 1.4 m/s
speed of sound (303.15 K, x2 = 0.203): 1440.3 ± 1.3 m/s
speed of sound (303.15 K, x2 = 0.305): 1403.3 ± 1.2 m/s
speed of sound (303.15 K, x2 = 0.3835): 1374.8 ± 1.2 m/s
speed of sound (303.15 K, x2 = 0.4936): 1334.8 ± 1.1 m/s
speed of sound (303.15 K, x2 = 0.5811): 1303.1 ± 1.1 m/s
speed of sound (303.15 K, x2 = 0.6878): 1264.3 ± 1.1 m/s
speed of sound (303.15 K, x2 = 0.7997): 1223.7 ± 1 m/s
speed of sound (303.15 K, x2 = 0.8818): 1193.9 ± 1 m/s
mass density (303.15 K, x2 = 0): 998.41 ± 2 kg/m3
mass density (303.15 K, x2 = 0.1034): 985.01 ± 2 kg/m3
mass density (303.15 K, x2 = 0.203): 972.1 ± 2 kg/m3
mass density (303.15 K, x2 = 0.305): 958.89 ± 2 kg/m3
mass density (303.15 K, x2 = 0.3835): 948.71 ± 2 kg/m3
mass density (303.15 K, x2 = 0.4936): 934.45 ± 2 kg/m3
mass density (303.15 K, x2 = 0.5811): 923.12 ± 2 kg/m3
mass density (303.15 K, x2 = 0.6878): 909.28 ± 2 kg/m3
mass density (303.15 K, x2 = 0.7997): 894.79 ± 2 kg/m3
mass density (303.15 K, x2 = 0.8818): 884.14 ± 2 kg/m3
speed of sound (308.15 K, x2 = 0): 1500.1 ± 1.4 m/s
speed of sound (308.15 K, x2 = 0.1034): 1461.9 ± 1.4 m/s
speed of sound (308.15 K, x2 = 0.203): 1425 ± 1.3 m/s
speed of sound (308.15 K, x2 = 0.305): 1387.2 ± 1.2 m/s
speed of sound (308.15 K, x2 = 0.3835): 1358.2 ± 1.2 m/s
speed of sound (308.15 K, x2 = 0.4936): 1317.4 ± 1.1 m/s
speed of sound (308.15 K, x2 = 0.5811): 1285.1 ± 1.1 m/s
speed of sound (308.15 K, x2 = 0.6878): 1245.5 ± 1.1 m/s
speed of sound (308.15 K, x2 = 0.7997): 1204.1 ± 1 m/s
speed of sound (308.15 K, x2 = 0.8818): 1173.7 ± 1 m/s
mass density (308.15 K, x2 = 0): 994.94 ± 2 kg/m3
mass density (308.15 K, x2 = 0.1034): 981.34 ± 2 kg/m3
mass density (308.15 K, x2 = 0.203): 968.23 ± 2 kg/m3
mass density (308.15 K, x2 = 0.305): 954.82 ± 2 kg/m3
mass density (308.15 K, x2 = 0.3835): 944.49 ± 2 kg/m3
mass density (308.15 K, x2 = 0.4936): 930.01 ± 2 kg/m3
mass density (308.15 K, x2 = 0.5811): 918.51 ± 2 kg/m3
mass density (308.15 K, x2 = 0.6878): 904.47 ± 2 kg/m3
mass density (308.15 K, x2 = 0.7997): 889.75 ± 2 kg/m3
mass density (308.15 K, x2 = 0.8818): 878.94 ± 2 kg/m3
